Converted amounts (≈) assume the structure as drawn. The source made the active and inactive calls. The rule behind the calls is not given here.
Columns and labels:
[1] = tested on: Staphylococcus aureus; experiment: Antibacterial activity against methicillin resistant Staphylococcus aureus MED 1805 bloodstream isolate assessed as bacterial count at 16 ug/ml after 24 hrs by time-kill assay; assay type: functional
[2] = tested on: Streptococcus viridans; experiment: Antibacterial activity against Streptococcus viridans clinical isolate by broth microdilution method; assay type: functional
[3] = tested on: Streptococcus pneumoniae; experiment: Antibacterial activity against multidrug resistant Streptococcus pneumoniae MED 1090 assessed as bacterial count at 0.03 ug/ml after 24 hrs by time-kill assay; assay type: functional
[4] = tested on: Enterococcus faecalis; experiment: Antibacterial activity against Enterococcus faecalis ATCC 51575 assessed as bacterial count at 8 ug/ml after 24 hrs by time-kill assay; assay type: functional
[5] = tested on: Staphylococcus aureus; experiment: Antibacterial activity against methicillin resistant Staphylococcus aureus MED 2028 osteomyelitis isolate assessed as bacterial count at 8 ug/ml after 4 hrs by time-kill assay; assay type: functional
[6] = tested on: Staphylococcus aureus; experiment: Antibacterial activity against methicillin resistant Staphylococcus aureus MED 1805 bloodstream isolate assessed as bacterial count at 4 ug/ml after 24 hrs by time-kill assay; assay type: functional
[7] = tested on: Streptococcus pyogenes; experiment: Antibacterial activity against Streptococcus pyogenes MED 2040 assessed as bacterial count at 0.5 ug/ml after 4 hrs by time-kill assay; assay type: functional
[8] = tested on: Streptococcus pneumoniae; experiment: Antibacterial activity against multidrug-resistant Streptococcus pneumoniae clinical isolate by broth microdilution method; assay type: functional
[9] = tested on: Staphylococcus aureus; experiment: Antibacterial activity against methicillin resistant Staphylococcus aureus MED 2028 osteomyelitis isolate assessed as bacterial count at 4 ug/ml after 4 hrs by time-kill assay; assay type: functional
[10] = tested on: Staphylococcus epidermidis; experiment: Antibacterial activity against methicillin resistant Staphylococcus epidermidis ATCC 35984 assessed as bacterial count at 16 ug/ml after 4 hrs by time-kill assay; assay type: functional
[11] = tested on: Enterococcus faecalis
[12] = tested on: Streptococcus pneumoniae; experiment: Antibacterial activity against multidrug resistant Streptococcus pneumoniae MED 1090 assessed as bacterial count at 2 ug/ml after 4 hrs by time-kill assay; assay type: functional
[13] = tested on: Staphylococcus epidermidis; experiment: Antibacterial activity against methicillin resistant Staphylococcus epidermidis ATCC 35984 assessed as bacterial count at 4 ug/ml after 2 hrs by time-kill assay; assay type: functional
[14] = tested on: Streptococcus agalactiae; experiment: Antibacterial activity against Streptococcus agalactiae MED 2038 assessed as bacterial count at 8 ug/ml after 8 hrs by time-kill assay; assay type: functional
[15] = tested on: Staphylococcus aureus; experiment: Antibacterial activity against methicillin resistant Staphylococcus aureus MED 2028 osteomyelitis isolate assessed as bacterial count at 16 ug/ml after 4 hrs by time-kill assay; assay type: functional
[16] = tested on: Streptococcus constellatus; experiment: Antibacterial activity against Streptococcus constellatus clinical isolate by broth microdilution method; assay type: functional
[17] = tested on: Staphylococcus aureus; experiment: Antibacterial activity against methicillin resistant Staphylococcus aureus MED 1805 bloodstream isolate assessed as bacterial count at 2 ug/ml after 4 hrs by time-kill assay; assay type: functional
[18] = tested on: Streptococcus pyogenes; experiment: Antibacterial activity against Streptococcus pyogenes group A clinical isolate by broth microdilution method; assay type: functional
[19] = tested on: Staphylococcus aureus; experiment: Antibacterial activity against methicillin resistant Staphylococcus aureus MED 1805 bloodstream isolate assessed as bacterial count at 2 ug/ml after 24 hrs by time-kill assay; assay type: functional
[20] = tested on: Streptococcus pyogenes; experiment: Antibacterial activity against Streptococcus pyogenes MED 2040 assessed as bacterial count at 8 ug/ml after 4 hrs by time-kill assay; assay type: functional
[21] = tested on: Streptococcus pneumoniae; experiment: Antibacterial activity against multidrug resistant Streptococcus pneumoniae MED 1090 assessed as bacterial count at 8 ug/ml after 24 hrs by time-kill assay; assay type: functional
[22] = tested on: Staphylococcus epidermidis; experiment: Antibacterial activity against methicillin resistant Staphylococcus epidermidis ATCC 35984 assessed as bacterial count at 16 ug/ml after 24 hrs by time-kill assay; assay type: functional
[23] = tested on: Streptococcus pyogenes; experiment: Antibacterial activity against Streptococcus pyogenes MED 2040 by broth microdilution method; assay type: functional
[24] = tested on: Enterococcus faecalis; experiment: Antibacterial activity against vancomycin resistant Enterococcus faecalis VanB clinical isolate by broth microdilution method; assay type: functional
[25] = tested on: Streptococcus pyogenes; experiment: Antibacterial activity against Streptococcus pyogenes MED 2040 assessed as bacterial count at 8 ug/ml after 2 hrs by time-kill assay; assay type: functional
[26] = tested on: Staphylococcus aureus; experiment: Antibacterial activity against methicillin resistant Staphylococcus aureus MED 2028 osteomyelitis isolate assessed as bacterial count at 2 ug/ml after 4 hrs by time-kill assay; assay type: functional
[27] = tested on: Streptococcus pneumoniae; experiment: Antibacterial activity against multidrug resistant Streptococcus pneumoniae MED 1090 assessed as bacterial count at 0.06 ug/ml after 4 hrs by time-kill assay; assay type: functional
[28] = tested on: Staphylococcus aureus; experiment: Antibacterial activity against methicillin resistant Staphylococcus aureus clinical isolate by broth microdilution method; assay type: functional
[29] = tested on: Streptococcus pyogenes; experiment: Antibacterial activity against Streptococcus pyogenes MED 2040 assessed as bacterial count at 8 ug/ml after 8 hrs by time-kill assay; assay type: functional
[30] = tested on: Staphylococcus aureus; experiment: Antibacterial activity against methicillin resistant Staphylococcus aureus MED 1805 bloodstream isolate assessed as bacterial count at 1 ug/ml after 2 hrs by time-kill assay; assay type: functional
[31] = Antibacterial activity against methicillin resistant coagulase-negative Staphylococcus hominis subsp. novobiosepticus clinical isolate by broth microdilution method; assay type: functional
[32] = tested on: Streptococcus pyogenes; experiment: Antibacterial activity against Streptococcus pyogenes MED 2040 assessed as bacterial count at 0.5 ug/ml after 2 hrs by time-kill assay; assay type: functional
[33] = tested on: Streptococcus pneumoniae; experiment: Antibacterial activity against multidrug resistant Streptococcus pneumoniae MED 1090 assessed as bacterial count at 0.06 ug/ml after 2 hrs by time-kill assay; assay type: functional
[34] = tested on: Staphylococcus haemolyticus; experiment: Antibacterial activity against methicillin resistant coagulase-negative Staphylococcus haemolyticus clinical isolate by broth microdilution method; assay type: functional
[35] = tested on: Enterococcus faecalis; experiment: Antibacterial activity against Enterococcus faecalis ATCC 51575 assessed as bacterial count at 2 ug/ml after 8 hrs by time-kill assay; assay type: functional
[36] = tested on: Staphylococcus epidermidis; experiment: Antibacterial activity against methicillin resistant Staphylococcus epidermidis ATCC 35984 assessed as bacterial count at 4 ug/ml after 24 hrs by time-kill assay; assay type: functional
[37] = tested on: Streptococcus agalactiae; experiment: Antibacterial activity against Streptococcus agalactiae MED 2038 assessed as bacterial count at 2 ug/ml after 24 hrs by time-kill assay; assay type: functional
[38] = tested on: Staphylococcus epidermidis; experiment: Antibacterial activity against methicillin resistant Staphylococcus epidermidis ATCC 35984 assessed as bacterial count at 8 ug/ml after 2 hrs by time-kill assay; assay type: functional
[39] = tested on: Staphylococcus aureus; experiment: Antibacterial activity against methicillin resistant Staphylococcus aureus MED 2028 osteomyelitis isolate assessed as bacterial count at 4 ug/ml after 2 hrs by time-kill assay; assay type: functional
[40] = tested on: Streptococcus agalactiae; experiment: Antibacterial activity against Streptococcus agalactiae MED 2038 assessed as bacterial count at 0.5 ug/ml after 2 hrs by time-kill assay; assay type: functional
[41] = tested on: Staphylococcus aureus; experiment: Antibacterial activity against methicillin resistant Staphylococcus aureus MED 1805 bloodstream isolate assessed as bacterial count at 16 ug/ml after 4 hrs by time-kill assay; assay type: functional
[42] = tested on: Enterococcus faecalis; experiment: Antibacterial activity against Enterococcus faecalis ATCC 51575 by broth microdilution method; assay type: functional
[43] = tested on: Streptococcus pyogenes; experiment: Antibacterial activity against Streptococcus pyogenes MED 2040 assessed as bacterial count at 2 ug/ml after 8 hrs by time-kill assay; assay type: functional

Q: Which log10CFU/ml [1] does the source give for `CCCCCCCCCCNCCN[C@@]1(C)C[C@H](O[C@H]2[C@H](Oc3c4cc5cc3Oc3ccc(cc3Cl)[C@@H](O)[C@@H](NC(=O)[C@@H](CC(C)C)NC)C(=O)N[C@@H](CC(N)=O)C(=O)N[C@H]5C(=O)N[C@H]3C(=O)N[C@H](C(=O)N[C@H](C(=O)O)c5cc(O)c(CNCP(=O)(O)O)c(O)c5-c5cc3ccc5O)[C@H](O)c3ccc(c(Cl)c3)O4)O[C@H](CO)[C@@H](O)[C@@H]2O)O[C@@H](C)[C@H]1O` [TELAVANCIN] here?
A: Its log10CFU/ml is 3.3.

Q: What about the MIC [2] of the same compound?
A: Its MIC is 0.015 µg/mL (≈ 0.00854 µM).

Q: And the MIC50 [2]?
A: Its MIC50 is “inactive”.

Q: What about the MIC90 [2] of the same compound?
A: Its MIC90 is “inactive”.

Q: And the log10CFU/ml [3]?
A: The log10CFU/ml was 3.4.

Q: What about the log10CFU/ml [4] of the same compound?
A: Its log10CFU/ml is 1.

Q: What about the log10CFU/ml [5] of the same compound?
A: Its log10CFU/ml is 2.2.

Q: What about the log10CFU/ml [6] of the same compound?
A: Its log10CFU/ml is 3.3.

Q: What about the log10CFU/ml [7] of the same compound?
A: Its log10CFU/ml is 1.6.

Q: And the MIC50 [8]?
A: The MIC50 was 0.015 µg/mL (≈ 0.00854 µM).

Q: What about the MIC90 [8] of the same compound?
A: The MIC90 was 0.03 µg/mL (≈ 0.0171 µM).

Q: What about the log10CFU/ml [9] of the same compound?
A: The log10CFU/ml was 1.7.

Q: And the log10CFU/ml [10]?
A: Its log10CFU/ml is 3.2.

Q: What about the MIC50 [11] of the same compound?
A: Its MIC50 is “inactive”.

Q: And the MIC90 [11]?
A: The MIC90 was “inactive”.

Q: And the log10CFU/ml [12]?
A: The log10CFU/ml was 3.

Q: What about the log10CFU/ml [13] of the same compound?
A: Its log10CFU/ml is 1.

Q: And the log10CFU/ml [14]?
A: The log10CFU/ml was 1.8.

Q: What about the log10CFU/ml [15] of the same compound?
A: Its log10CFU/ml is 0.8.

Q: What about the MIC [16] of the same compound?
A: Its MIC is 0.015 µg/mL (≈ 0.00854 µM).

Q: What about the MIC50 [16] of the same compound?
A: The MIC50 was “inactive”.

Q: What about the MIC90 [16] of the same compound?
A: Its MIC90 is “inactive”.

Q: What about the log10CFU/ml [17] of the same compound?
A: Its log10CFU/ml is 2.8.

Q: And the MIC50 [18]?
A: Its MIC50 is 0.03 µg/mL (≈ 0.0171 µM).

Q: What about the MIC90 [18] of the same compound?
A: Its MIC90 is 0.06 µg/mL (≈ 0.0342 µM).

Q: What about the log10CFU/ml [19] of the same compound?
A: The log10CFU/ml was 2.8.

Q: What about the log10CFU/ml [20] of the same compound?
A: Its log10CFU/ml is 1.2.

Q: What about the log10CFU/ml [21] of the same compound?
A: Its log10CFU/ml is 3.4.

Q: And the log10CFU/ml [22]?
A: The log10CFU/ml was 3.3.

Q: What about the MIC [23] of the same compound?
A: Its MIC is 0.06 µg/mL (≈ 0.0342 µM).

Q: And the MIC [24]?
A: Its MIC is 0.25 µg/mL (≈ 0.142 µM).

Q: And the log10CFU/ml [25]?
A: The log10CFU/ml was 0.6.

Q: What about the log10CFU/ml [26] of the same compound?
A: Its log10CFU/ml is 1.6.

Q: What about the log10CFU/ml [27] of the same compound?
A: Its log10CFU/ml is 2.1.

Q: And the Activity [28]?
A: The Activity was 100%.

Q: And the MIC50 ([28]; Staphylococcus aureus)?
A: Its MIC50 is 0.25 µg/mL (≈ 0.142 µM).

Q: What about the MIC90 ([28]; Staphylococcus aureus) of the same compound?
A: The MIC90 was 0.5 µg/mL (≈ 0.285 µM).

Q: What about the log10CFU/ml [29] of the same compound?
A: The log10CFU/ml was 2.7.

Q: What about the log10CFU/ml [30] of the same compound?
A: The log10CFU/ml was 0.9.

Q: And the MIC50 [31]?
A: Its MIC50 is 0.5 µg/mL (≈ 0.285 µM).

Q: What about the MIC90 [31] of the same compound?
A: The MIC90 was 1 µg/mL (≈ 0.57 µM).

Q: What about the log10CFU/ml [32] of the same compound?
A: Its log10CFU/ml is 0.9.

Q: And the log10CFU/ml [33]?
A: The log10CFU/ml was 1.

Q: What about the MIC50 [34] of the same compound?
A: The MIC50 was 0.5 µg/mL (≈ 0.285 µM).

Q: And the MIC90 [34]?
A: The MIC90 was 1 µg/mL (≈ 0.57 µM).

Q: What about the log10CFU/ml [35] of the same compound?
A: Its log10CFU/ml is 0.6.

Q: And the log10CFU/ml [36]?
A: The log10CFU/ml was 3.3.

Q: And the log10CFU/ml [37]?
A: Its log10CFU/ml is 2.7.

Q: And the log10CFU/ml [38]?
A: The log10CFU/ml was 0.5.

Q: And the log10CFU/ml [39]?
A: Its log10CFU/ml is 0.7.

Q: What about the log10CFU/ml [40] of the same compound?
A: Its log10CFU/ml is 0.87.

Q: And the log10CFU/ml [41]?
A: The log10CFU/ml was 1.6.

Q: What about the MIC [42] of the same compound?
A: Its MIC is 1 µg/mL (≈ 0.57 µM).

Q: And the log10CFU/ml [43]?
A: The log10CFU/ml was 3.1.

Reference: ChEMBL document CHEMBL1275440, “In vitro activity of telavancin against resistant gram-positive bacteria” (2008)
